From PMC10231839, “A glycan receptor kinase facilitates intracellular accommodation of arbuscular mycorrhiza and symbiotic rhizobia in the legume Lotus japonicus” (PLOS Biology, 2023)

Tests used:
EPR3a ectodomain = target: T1, EPR3a ectodomain (Lotus japonicus, UniProt Z9OTA2OEF3); test: microscale thermophoresis; assay type: binding; settings: PBS pH 7.4, 500 mM NaCl, 0.01% Tween20, RT, labelled protein
T1 construct: ectodomain residues 25-223; native signal peptide replaced by AcGP67 signal peptide; non-cleavable C-terminal 6xHis; Sf9 insect cells; PNGase F trimmed and BLUE-NHS labelled for MST
T1 sequence (Z9OTA2OEF3 25-223): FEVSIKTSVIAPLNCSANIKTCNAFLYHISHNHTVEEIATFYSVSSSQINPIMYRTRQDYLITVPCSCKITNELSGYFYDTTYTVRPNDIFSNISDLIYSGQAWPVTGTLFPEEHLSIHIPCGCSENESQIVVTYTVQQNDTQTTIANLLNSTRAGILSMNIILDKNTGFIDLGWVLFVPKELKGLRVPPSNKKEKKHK

[1] = target: T2, EPR3a intracellular kinase domain (Lotus japonicus, UniProt Z9OTA2OEF3); test: autophosphorylation, SDS-PAGE with Pro-Q Diamond stain; assay type: biochemical; settings: 20 μM ATP, 10 mM MgCl2, pH 8.0, 1 h
T2 construct: intracellular kinase domain residues 255-615; E. coli Rosetta 2; His10-Arg7-SUMO tag cut by 3C protease; lambda-phosphatase dephosphorylated
T2 sequence (Z9OTA2OEF3 255-615): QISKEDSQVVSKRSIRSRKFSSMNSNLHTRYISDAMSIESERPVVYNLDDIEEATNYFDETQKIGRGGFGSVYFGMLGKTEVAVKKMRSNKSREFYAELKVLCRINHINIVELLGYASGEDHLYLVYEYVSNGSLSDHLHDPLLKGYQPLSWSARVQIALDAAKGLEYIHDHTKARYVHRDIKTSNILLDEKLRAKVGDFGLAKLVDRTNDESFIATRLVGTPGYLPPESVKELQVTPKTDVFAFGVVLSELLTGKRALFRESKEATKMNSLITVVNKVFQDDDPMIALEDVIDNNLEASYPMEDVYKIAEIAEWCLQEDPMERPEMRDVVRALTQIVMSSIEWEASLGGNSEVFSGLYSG

[2] = target: T3, EPR3 intracellular kinase domain (Lotus japonicus, UniProt D3KU53); test: as above; assay type: biochemical; settings: 20 μM ATP, 10 mM MgCl2, pH 8.0, 1 h
T3 construct: gene LYS3; intracellular kinase domain residues 259-620; E. coli Rosetta 2; His10-Arg7-SUMO tag cut by 3C protease; lambda-phosphatase dephosphorylated
T3 sequence (D3KU53 entry or part of it): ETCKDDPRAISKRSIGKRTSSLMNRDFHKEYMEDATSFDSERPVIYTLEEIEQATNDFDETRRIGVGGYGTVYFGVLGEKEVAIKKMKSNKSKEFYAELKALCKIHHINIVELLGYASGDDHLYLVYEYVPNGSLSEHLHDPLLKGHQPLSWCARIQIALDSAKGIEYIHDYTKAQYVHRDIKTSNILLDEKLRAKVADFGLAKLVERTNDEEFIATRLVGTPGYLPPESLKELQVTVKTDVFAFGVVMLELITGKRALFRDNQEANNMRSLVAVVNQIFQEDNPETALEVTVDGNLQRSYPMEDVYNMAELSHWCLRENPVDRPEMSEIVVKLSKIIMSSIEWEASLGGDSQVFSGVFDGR

Row | Kd (EPR3a ectodomain) | Compound | other results
1 | 937 ± 389 µM | S. meliloti EPS | 
2 | ~670 µM | OC[C@H]1O[C@@H](O[C@@H]2[C@@H](O)[C@H](O[C@@H]3[C@@H](O)[C@H](O[C@@H]4[C@@H](O)[C@H](O[C@@H]5[C@@H](O)[C@H](O[C@H]6[C@H](O)[C@@H](CO)OC(O)[C@@H]6O)O[C@H](CO)[C@H]5O)O[C@H](CO)[C@H]4O)O[C@H](CO)[C@H]3O)O[C@H](CO)[C@H]2O)[C@H](O)[C@@H](O)[C@@H]1O (some centres unmarked) [laminarihexaose] | 
3 | 44.4 ± 11.2 µM | M. loti EPS | 
4 | ~850 µM | OC[C@H]1O[C@@H](O[C@@H]2[C@@H](O)[C@H](O[C@@H]3[C@@H](O)[C@H](O[C@@H]4[C@@H](O)[C@H](O[C@H]5[C@H](O)[C@@H](CO)OC(O)[C@@H]5O)O[C@H](CO)[C@H]4O)O[C@H](CO)[C@H]3O)O[C@H](CO)[C@H]2O)[C@H](O)[C@@H](O)[C@@H]1O (some centres unmarked) [laminaripentaose] | 
5 |  | Nc1ncnc2c1ncn2[C@@H]1O[C@H](COP(=O)(O)OP(=O)(O)OP(=O)(O)O)[C@@H](O)[C@H]1O [ATP] | autophosphorylation, SDS-PAGE with Pro-Q Diamond stain [1]: EPR3a and EPR3 are able to autophosphorylate; autophosphorylation, SDS-PAGE with Pro-Q Diamond stain [2]: EPR3a and EPR3 are able to autophosphorylate
6 | 12.5 ± 4 µM | R. leguminosarum EPS | 
7 |  | S. indica β-1,3/β-1,6 decasaccharide | Kd (EPR3a ectodomain; first (high-affinity) of two binding events): 51 ± 23 µM
